Measurements reported in patent US20210137886A1, “INHIBITORS OF METALLO-BETA-LACTAMASES” (Oxford University Innovation Limited, priority 2017, published 2021).
In brackets after ≈: the same amount, converted by molar mass.

What was measured:
IMP-1 (Imipenemase-1) = IMP-1 (Imipenemase-1) (Serratia marcescens, UniProt P52699); test: Metallo-β-lactamase enzyme inhibition, standard assay protocol
[1] = target: NDM-1 (New Delhi metallo-β-lactamase-1) (Klebsiella pneumoniae, UniProt C7C422); test: as above
[2] = target: VIM-2 (Veronese metallo-β-lactamase-2) (Escherichia coli, UniProt Q5U7L7); test: as above
[3] = target: VIM-1 (Veronese metallo-β-lactamase-1) (Pseudomonas aeruginosa, UniProt A0A0F7KYQ8); test: as above
[4] = system: Klebsiella pneumoniae NDM-1; test: Meropenem MIC, CLSI broth or agar microdilution, strain entry 6; type: cell-based; settings: for Change in MIC value of meropenem: strain entry 6, Klebsiella pneumoniae NDM-1
Excerpt: (§1) In each case DMSO was used to dissolve inhibitors.

[5] = system: Pseudomonas aeruginosa VIM-2; test: Meropenem MIC, CLSI broth or agar microdilution, strain entry 5; type: cell-based; settings: for Change in MIC value of meropenem: strain entry 5, Pseudomonas aeruginosa VIM-2
Excerpt: as §1

[6] = system: Klebsiella pneumoniae IMP-4; test: Meropenem MIC, CLSI broth or agar microdilution, strain entry 1; type: cell-based
[7] = system: Klebsiella pneumoniae NDM-1 + DHA + CTX − M-15; test: Meropenem MIC, CLSI broth or agar microdilution, strain entry 7; type: cell-based
E. coli IMP-4 = test: Meropenem MIC, CLSI broth or agar microdilution, strain entry 2; type: cell-based
[8] = system: Klebsiella pneumoniae VIM-1; test: Meropenem MIC, CLSI broth or agar microdilution, strain entry 4; type: cell-based
E. coli VIM-1 = test: Meropenem MIC, CLSI broth or agar microdilution, strain entry 3; type: cell-based; settings: for Change in MIC value of meropenem: strain entry 3, E. coli VIM-1
Excerpt: as §1

IMP-1 (Imipenemase-1), sequence (P52699 19-246, looked up, species assumed): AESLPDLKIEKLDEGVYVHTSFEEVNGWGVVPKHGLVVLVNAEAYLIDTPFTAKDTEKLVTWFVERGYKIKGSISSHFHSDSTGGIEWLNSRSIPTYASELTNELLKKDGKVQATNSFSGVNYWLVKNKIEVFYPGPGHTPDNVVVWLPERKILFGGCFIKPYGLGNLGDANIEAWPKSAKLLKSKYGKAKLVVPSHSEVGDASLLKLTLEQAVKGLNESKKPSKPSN
NDM-1 (New Delhi metallo-β-lactamase-1), sequence (C7C422 29-270, looked up, species assumed): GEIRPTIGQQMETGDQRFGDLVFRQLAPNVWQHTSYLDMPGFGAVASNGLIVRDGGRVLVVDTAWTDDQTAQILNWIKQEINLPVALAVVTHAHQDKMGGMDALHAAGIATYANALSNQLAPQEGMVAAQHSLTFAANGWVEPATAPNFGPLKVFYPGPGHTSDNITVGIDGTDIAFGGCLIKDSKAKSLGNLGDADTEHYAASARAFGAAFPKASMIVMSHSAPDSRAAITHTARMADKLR

| Structure (SMILES) | IC50 (IMP-1 (Imipenemase-1)) | IC50 [1] | IC50 [2] | IC50 [3] | Change in MIC value of meropenem ([4]; 2 mg/L inhibitor) | Change in MIC value of meropenem ([4]; 4 mg/L inhibitor) | Change in MIC value of meropenem ([4]; 8 mg/L inhibitor) | Change in MIC value of meropenem ([5]; 2 mg/L inhibitor) | Change in MIC value of meropenem ([5]; 4 mg/L inhibitor) | Change in MIC value of meropenem ([5]; 8 mg/L inhibitor) | Change in MIC value of meropenem ([6]; 2 mg/L inhibitor) | Change in MIC value of meropenem ([6]; 4 mg/L inhibitor) | Change in MIC value of meropenem ([6]; 8 mg/L inhibitor) | Change in MIC value of meropenem ([7]; 2 mg/L inhibitor) | Change in MIC value of meropenem ([7]; 4 mg/L inhibitor) | Change in MIC value of meropenem ([7]; 8 mg/L inhibitor) | Change in MIC value of meropenem (E. coli IMP-4; 2 mg/L inhibitor) | Change in MIC value of meropenem (E. coli IMP-4; 4 mg/L inhibitor) | Change in MIC value of meropenem (E. coli IMP-4; 8 mg/L inhibitor) | Change in MIC value of meropenem ([8]; 2 mg/L inhibitor) | other results |
| --- | --- | --- | --- | --- | --- | --- | --- | --- | --- | --- | --- | --- | --- | --- | --- | --- | --- | --- | --- | --- | --- |
| O=C(O)c1cc2scc(C3CC3)c2[nH]1 [Example 8, 3-cyclopropyl-4H-thieno[3,2-b]pyrrole-5-carboxylic acid] | > 251 µM | 126 µM | 39.8 µM | > 251 µM | – | – | – | – | – | – | – | – | – | – | – | – | – | – | – | – | – |
| CS(=O)(=O)Cc1ccc(-c2c(C(=O)O)[nH]c3c(C4CC4)csc23)cc1Cl [Example 18, 6-(3-chloro-4-((methylsulfonyl)methyl)phenyl)-3-cyclopropyl-4H-thieno[3,2-b]pyrrole-5-carboxylic acid] | – | – | – | – | 0 log2 difference | 0 log2 difference | 0 log2 difference | 0 log2 difference | 0 log2 difference | 0 log2 difference | 0 log2 difference | 0 log2 difference | 0 log2 difference | −2 log2 difference | −2 log2 difference | −2 log2 difference | 0 log2 difference | 0 log2 difference | 0 log2 difference | −3 log2 difference | Change in MIC value of meropenem ([8]; 4 mg/L inhibitor): −2 log2 difference; Change in MIC value of meropenem ([8]; 8 mg/L inhibitor): −3 log2 difference; Change in MIC value of meropenem (E. coli VIM-1; 2 mg/L inhibitor): −1 log2 difference; Change in MIC value of meropenem (E. coli VIM-1; 4 mg/L inhibitor): −1 log2 difference; Change in MIC value of meropenem (E. coli VIM-1; 8 mg/L inhibitor): −1 log2 difference |
| C[C@@H](O)[C@H]1C(=O)N2C(C(=O)O)=C(S[C@@H]3CN[C@H](C(=O)N(C)C)C3)[C@H](C)[C@H]12 [meropenem, reference compound] | – | – | – | – | – | – | – | – | – | – | – | – | – | – | – | – | – | – | – | – | MIC ([4]; Klebsiella pneumoniae, NDM1, read-out: MER MIC): > 128 µg/mL; MIC ([5]; Pseudomonas aeruginosa, VIM2, read-out: MER MIC): 32 µg/mL (≈ 83.4 µM); MIC (E. coli VIM-1; Escherichia coli, VIM1, read-out: MER MIC): 0.25 µg/mL (≈ 0.652 µM) |

The next lines start with results.

| IC50 (IMP-1 (Imipenemase-1)) | IC50 [1] | IC50 [2] | IC50 [3] | Change in MIC value of meropenem ([4]; 2 mg/L inhibitor) | Change in MIC value of meropenem ([4]; 4 mg/L inhibitor) | Change in MIC value of meropenem ([4]; 8 mg/L inhibitor) | Change in MIC value of meropenem ([5]; 2 mg/L inhibitor) | Change in MIC value of meropenem ([5]; 4 mg/L inhibitor) | Change in MIC value of meropenem ([5]; 8 mg/L inhibitor) | Change in MIC value of meropenem ([6]; 2 mg/L inhibitor) | Change in MIC value of meropenem ([6]; 4 mg/L inhibitor) | Change in MIC value of meropenem ([6]; 8 mg/L inhibitor) | Change in MIC value of meropenem ([7]; 2 mg/L inhibitor) | Change in MIC value of meropenem ([7]; 4 mg/L inhibitor) | Change in MIC value of meropenem ([7]; 8 mg/L inhibitor) | Change in MIC value of meropenem (E. coli IMP-4; 2 mg/L inhibitor) | Change in MIC value of meropenem (E. coli IMP-4; 4 mg/L inhibitor) | Change in MIC value of meropenem (E. coli IMP-4; 8 mg/L inhibitor) | Change in MIC value of meropenem ([8]; 2 mg/L inhibitor) | Structure (SMILES) | other results |
| --- | --- | --- | --- | --- | --- | --- | --- | --- | --- | --- | --- | --- | --- | --- | --- | --- | --- | --- | --- | --- | --- |
| > 63.1 µM | 39.8 µM | 20 µM | > 251 µM | – | – | – | – | – | – | – | – | – | – | – | – | – | – | – | – | CC(C)c1csc2cc(C(=O)O)[nH]c12 [Example 7, 3-isopropyl-4H-thieno[3,2-b]pyrrole-5-carboxylic acid] | – |
| 12.6 µM | 0.316 µM | 0.0501 µM | 1.58 µM | – | – | – | – | – | – | – | – | – | – | – | – | – | – | – | – | CC(=O)Nc1cccc(-c2c(C(=O)O)[nH]c3c(Br)csc23)c1 [Example 9, 6-(3-acetamidophenyl)-3-bromo-4H-thieno[3,2-b]pyrrole-5-carboxylic acid] | – |
| 0.0501 µM | 0.0501 µM | 0.0398 µM | 0.631 µM | −1 log2 difference | −1 log2 difference | −2 log2 difference | 0 log2 difference | 0 log2 difference | 0 log2 difference | −2 log2 difference | −2 log2 difference | −2 log2 difference | −1 log2 difference | −2 log2 difference | −3 log2 difference | −2 log2 difference | −2 log2 difference | −3 log2 difference | −2 log2 difference | CC(C)c1csc2c(-c3ccc(F)cc3)c(C(=O)O)[nH]c12 [Example 12, 3-isopropyl-6-(4-fluorophenyl)-4H-thieno-[3,2-b]pyrrole-5-carboxylic acid] | Change in MIC value of meropenem ([8]; 4 mg/L inhibitor): −2 log2 difference; Change in MIC value of meropenem ([8]; 8 mg/L inhibitor): −2 log2 difference; Change in MIC value of meropenem (E. coli VIM-1; 2 mg/L inhibitor): −1 log2 difference; Change in MIC value of meropenem (E. coli VIM-1; 4 mg/L inhibitor): −1 log2 difference; Change in MIC value of meropenem (E. coli VIM-1; 8 mg/L inhibitor): −1 log2 difference |
